Source: ChEMBL document CHEMBL1201862, “PubChem BioAssay data set” (2004)
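1) Cells in 96-well plates. 2) Compound, 48 h, 5 concentrations. 3) Linear interpolation between surrounding doses. 4) Unreached endpoint = highest concentration. Here, GI50 denotes the concentration required for 50% inhibition of growth.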 Activity calls are given as the source filed them. No stated cut-off is given here; in the data, active = GI50 up to about 1.1 µM and inactive = higher.

Legend:
Assay in all cases: NCI tumour cell line growth inhibition, 48 h
PC-3 = test system: PC-3
OVCAR-8 = test system: OVCAR-8
DU-145 = test system: DU-145
A549 = test system: A549
SK-MEL-2 = test system: SK-MEL-2
CCRF-CEM = test system: CCRF-CEM
LOX IMVI = test system: LOX IMVI
SK-OV-3 = test system: SK-OV-3
OVCAR-3 = test system: OVCAR-3
SK-MEL-5 = test system: SK-MEL-5
SNB-19 = test system: SNB-19
SK-MEL-28 = test system: SK-MEL-28
HOP-62 = test system: HOP-62
K562 = test system: K562
COLO 205 = test system: COLO 205
MCF7 = test system: MCF7
CAKI-1 = test system: CAKI-1
UO-31 = test system: UO-31
HT-29 = test system: HT-29
SW-620 = test system: SW-620
HCT-15 = test system: HCT-15
MDA-MB-435 = test system: MDA-MB-435
U-251 = test system: U-251
HCC 2998 = test system: HCC 2998
EKVX = test system: EKVX
Malme-3M = test system: Malme-3M
KM12 = test system: KM12
NCI/ADR-RES = test system: NCI/ADR-RES
ACHN = test system: ACHN
NCI-H23 = test system: NCI-H23
SF-539 = test system: SF-539
NCI-H460 = test system: NCI-H460
RPMI-8226 = test system: RPMI-8226
HCT-116 = test system: HCT-116
BT-549 = test system: BT-549
Hs-578T = test system: Hs-578T
HL-60 = test system: HL-60
UACC-62 = test system: UACC-62
M14 = test system: M14
786-0 = test system: 786-0
NCI-H522 = test system: NCI-H522
T47D = test system: T47D
OVCAR-5 = test system: OVCAR-5
SF-295 = test system: SF-295
UACC-257 = test system: UACC-257
MOLT-4 = test system: MOLT-4
IGROV-1 = test system: IGROV-1
SR = test system: SR
MDA-N = test system: MDA-N
OVCAR-4 = test system: OVCAR-4
A498 = test system: A498
SF-268 = test system: SF-268
MDA-MB-231 = test system: MDA-MB-231
RXF 393 = test system: RXF 393
SN12C = test system: SN12C
NCI-H226 = test system: NCI-H226
HOP-92 = test system: HOP-92
TK-10 = test system: TK-10

**Q.** `O=c1c(/C=C/c2c(O)ccc3ccccc23)nnc2sc(-c3cccc(Br)c3)nn12` was tested. Which GI50 (PC-3) did it give?
**A.** 22.4 µM (inactive)

**Q.** And the GI50 (OVCAR-8)?
**A.** 3.44 µM (inactive)

**Q.** And the GI50 (DU-145)?
**A.** 16.1 µM (inactive)

**Q.** What about the GI50 (A549) of the same compound?
**A.** 32.1 µM (inactive)

**Q.** And the GI50 (SK-MEL-2)?
**A.** 23.6 µM (inactive)

**Q.** What about the GI50 (CCRF-CEM) of the same compound?
**A.** 3.82 µM (inactive)

**Q.** What about the GI50 (LOX IMVI) of the same compound?
**A.** 4.88 µM (inactive)

**Q.** What about the GI50 (SK-OV-3) of the same compound?
**A.** 30.1 µM (inactive)

**Q.** What about the GI50 (OVCAR-3) of the same compound?
**A.** 3.89 µM (inactive)

**Q.** What about the GI50 (SK-MEL-5) of the same compound?
**A.** 17.8 µM (inactive)

**Q.** What about the GI50 (SNB-19) of the same compound?
**A.** 39 µM (inactive)

**Q.** What about the GI50 (SK-MEL-28) of the same compound?
**A.** 20.8 µM (inactive)

**Q.** What about the GI50 (HOP-62) of the same compound?
**A.** 24.8 µM (inactive)

**Q.** And the GI50 (K562)?
**A.** 19.9 µM (inactive)

**Q.** What about the GI50 (COLO 205) of the same compound?
**A.** 39.2 µM (inactive)

**Q.** And the GI50 (MCF7)?
**A.** 13.6 µM (inactive)

**Q.** What about the GI50 (CAKI-1) of the same compound?
**A.** 15.3 µM (inactive)

**Q.** And the GI50 (UO-31)?
**A.** 13.4 µM (inactive)

**Q.** What about the GI50 (HT-29) of the same compound?
**A.** 29.9 µM (inactive)

**Q.** And the GI50 (SW-620)?
**A.** 25.6 µM (inactive)

**Q.** What about the GI50 (HCT-15) of the same compound?
**A.** 6.78 µM

**Q.** What about the GI50 (MDA-MB-435) of the same compound?
**A.** 21.1 µM (inactive)

**Q.** What about the GI50 (U-251) of the same compound?
**A.** 25.2 µM (inactive)

**Q.** What about the GI50 (HCC 2998) of the same compound?
**A.** 20.1 µM (inactive)

**Q.** What about the GI50 (EKVX) of the same compound?
**A.** 16.7 µM (inactive)

**Q.** What about the GI50 (Malme-3M) of the same compound?
**A.** 23 µM (inactive)

**Q.** And the GI50 (KM12)?
**A.** 20.7 µM (inactive)

**Q.** What about the GI50 (NCI/ADR-RES) of the same compound?
**A.** 22.8 µM (inactive)

**Q.** And the GI50 (ACHN)?
**A.** 16.1 µM (inactive)

**Q.** And the GI50 (NCI-H23)?
**A.** 14.7 µM (inactive)

**Q.** And the GI50 (SF-539)?
**A.** 63.8 µM (inactive)

**Q.** What about the GI50 (NCI-H460) of the same compound?
**A.** 25.4 µM (inactive)

**Q.** And the GI50 (RPMI-8226)?
**A.** 10.3 µM (inactive)

**Q.** What about the GI50 (HCT-116) of the same compound?
**A.** 22.5 µM (inactive)

**Q.** And the GI50 (BT-549)?
**A.** 11.6 µM (inactive)

**Q.** And the GI50 (Hs-578T)?
**A.** 35.9 µM (inactive)

**Q.** And the GI50 (HL-60)?
**A.** 3.94 µM (inactive)

**Q.** What about the GI50 (UACC-62) of the same compound?
**A.** 20.7 µM (inactive)

**Q.** And the GI50 (M14)?
**A.** 15.8 µM (inactive)

**Q.** What about the GI50 (786-0) of the same compound?
**A.** 26.6 µM (inactive)

**Q.** And the GI50 (NCI-H522)?
**A.** 15.5 µM (inactive)

**Q.** And the GI50 (T47D)?
**A.** 15 µM (inactive)

**Q.** And the GI50 (OVCAR-5)?
**A.** 19.5 µM (inactive)

**Q.** What about the GI50 (SF-295) of the same compound?
**A.** 32.7 µM (inactive)

**Q.** What about the GI50 (UACC-257) of the same compound?
**A.** 23.7 µM (inactive)

**Q.** And the GI50 (MOLT-4)?
**A.** 3.4 µM (inactive)

**Q.** And the GI50 (IGROV-1)?
**A.** 0.773 µM (active)

**Q.** What about the GI50 (SR) of the same compound?
**A.** 4.72 µM (inactive)

**Q.** What about the GI50 (MDA-N) of the same compound?
**A.** 28.3 µM (inactive)

**Q.** And the GI50 (OVCAR-4)?
**A.** 4.8 µM (inactive)

**Q.** And the GI50 (A498)?
**A.** 26.7 µM (inactive)

**Q.** What about the GI50 (SF-268) of the same compound?
**A.** 4.51 µM (inactive)

**Q.** For `COc1ccc(/N=N/N2CCCC2)cc1`, which GI50 (MDA-MB-231) is on record?
**A.** 20.5 µM (inactive)

**Q.** And the GI50 (PC-3)?
**A.** 36.5 µM (inactive)

**Q.** And the GI50 (DU-145)?
**A.** > 100 µM (inactive)

**Q.** And the GI50 (A549)?
**A.** > 100 µM (inactive)

**Q.** And the GI50 (SK-MEL-2)?
**A.** > 100 µM (inactive)

**Q.** What about the GI50 (CCRF-CEM) of the same compound?
**A.** 16.7 µM (inactive)

**Q.** And the GI50 (LOX IMVI)?
**A.** 16.1 µM (inactive)

**Q.** And the GI50 (SK-OV-3)?
**A.** > 100 µM (inactive)

**Q.** And the GI50 (RXF 393)?
**A.** 26.1 µM (inactive)

**Q.** And the GI50 (SN12C)?
**A.** 21.7 µM (inactive)

**Q.** And the GI50 (OVCAR-3)?
**A.** 19.6 µM (inactive)

**Q.** And the GI50 (SK-MEL-5)?
**A.** 30.4 µM (inactive)

**Q.** And the GI50 (SNB-19)?
**A.** > 100 µM (inactive)

**Q.** And the GI50 (SK-MEL-28)?
**A.** 44.2 µM (inactive)

**Q.** And the GI50 (HOP-62)?
**A.** > 100 µM (inactive)

**Q.** And the GI50 (NCI-H226)?
**A.** > 100 µM (inactive)

**Q.** And the GI50 (K562)?
**A.** 31.4 µM (inactive)

**Q.** What about the GI50 (COLO 205) of the same compound?
**A.** 17.9 µM (inactive)

**Q.** And the GI50 (MCF7)?
**A.** 30.8 µM (inactive)

**Q.** What about the GI50 (CAKI-1) of the same compound?
**A.** 16.2 µM (inactive)

**Q.** And the GI50 (UO-31)?
**A.** 31.9 µM (inactive)

**Q.** What about the GI50 (HT-29) of the same compound?
**A.** 40.2 µM (inactive)

**Q.** And the GI50 (SW-620)?
**A.** 26.8 µM (inactive)

**Q.** And the GI50 (HCT-15)?
**A.** 22.6 µM

**Q.** And the GI50 (MDA-MB-435)?
**A.** 70.6 µM (inactive)

**Q.** What about the GI50 (U-251) of the same compound?
**A.** > 100 µM (inactive)

**Q.** And the GI50 (HCC 2998)?
**A.** 45.6 µM (inactive)

**Q.** What about the GI50 (EKVX) of the same compound?
**A.** 19.7 µM (inactive)

**Q.** What about the GI50 (Malme-3M) of the same compound?
**A.** 17.6 µM (inactive)

**Q.** What about the GI50 (KM12) of the same compound?
**A.** 0.305 µM (active)

**Q.** And the GI50 (ACHN)?
**A.** 15.5 µM (inactive)

**Q.** And the GI50 (NCI-H23)?
**A.** 61.7 µM (inactive)

**Q.** And the GI50 (SF-539)?
**A.** 29.8 µM (inactive)

**Q.** What about the GI50 (NCI-H460) of the same compound?
**A.** > 100 µM (inactive)

**Q.** What about the GI50 (RPMI-8226) of the same compound?
**A.** 26.1 µM (inactive)

**Q.** What about the GI50 (HCT-116) of the same compound?
**A.** 20.1 µM (inactive)

**Q.** And the GI50 (BT-549)?
**A.** 23.2 µM (inactive)

**Q.** What about the GI50 (Hs-578T) of the same compound?
**A.** 54.5 µM (inactive)

**Q.** What about the GI50 (HL-60) of the same compound?
**A.** 30.1 µM (inactive)

**Q.** What about the GI50 (UACC-62) of the same compound?
**A.** 30.9 µM (inactive)

**Q.** And the GI50 (M14)?
**A.** 44.8 µM (inactive)

**Q.** And the GI50 (HOP-92)?
**A.** 21.7 µM (inactive)

**Q.** What about the GI50 (TK-10) of the same compound?
**A.** 57.1 µM (inactive)

**Q.** And the GI50 (786-0)?
**A.** 15.6 µM (inactive)

**Q.** And the GI50 (NCI-H522)?
**A.** 12.9 µM (inactive)

**Q.** And the GI50 (T47D)?
**A.** 18.3 µM (inactive)

**Q.** What about the GI50 (OVCAR-5) of the same compound?
**A.** 83.9 µM (inactive)

**Q.** What about the GI50 (SF-295) of the same compound?
**A.** > 100 µM (inactive)

**Q.** And the GI50 (UACC-257)?
**A.** > 100 µM (inactive)

**Q.** And the GI50 (MOLT-4)?
**A.** 26.9 µM (inactive)

**Q.** What about the GI50 (IGROV-1) of the same compound?
**A.** 14.9 µM (inactive)

**Q.** What about the GI50 (SR) of the same compound?
**A.** 48.3 µM (inactive)

**Q.** What about the GI50 (MDA-N) of the same compound?
**A.** 16.9 µM (inactive)

**Q.** What about the GI50 (OVCAR-4) of the same compound?
**A.** 18.6 µM (inactive)

**Q.** What about the GI50 (A498) of the same compound?
**A.** > 100 µM (inactive)

**Q.** What about the GI50 (SF-268) of the same compound?
**A.** 31.8 µM (inactive)
